Reference: ChEMBL document CHEMBL1201862, “PubChem BioAssay data set” (2004)
The source made the active and inactive calls.

Legend:
[1] = target: T1, Short transient receptor potential channel 4 (Mus musculus, UniProt Q9QUQ5); assay: mouse TRPC4 channel inhibitors, dose response, cell-based, HEK293 TRPC4/mu-opioid, Fluo-4 calcium (AID 434942); format: functional;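 also: potency of inhibitors blocking the TRPC4 calcium response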
T1 sequence (Q9QUQ5 whole entry): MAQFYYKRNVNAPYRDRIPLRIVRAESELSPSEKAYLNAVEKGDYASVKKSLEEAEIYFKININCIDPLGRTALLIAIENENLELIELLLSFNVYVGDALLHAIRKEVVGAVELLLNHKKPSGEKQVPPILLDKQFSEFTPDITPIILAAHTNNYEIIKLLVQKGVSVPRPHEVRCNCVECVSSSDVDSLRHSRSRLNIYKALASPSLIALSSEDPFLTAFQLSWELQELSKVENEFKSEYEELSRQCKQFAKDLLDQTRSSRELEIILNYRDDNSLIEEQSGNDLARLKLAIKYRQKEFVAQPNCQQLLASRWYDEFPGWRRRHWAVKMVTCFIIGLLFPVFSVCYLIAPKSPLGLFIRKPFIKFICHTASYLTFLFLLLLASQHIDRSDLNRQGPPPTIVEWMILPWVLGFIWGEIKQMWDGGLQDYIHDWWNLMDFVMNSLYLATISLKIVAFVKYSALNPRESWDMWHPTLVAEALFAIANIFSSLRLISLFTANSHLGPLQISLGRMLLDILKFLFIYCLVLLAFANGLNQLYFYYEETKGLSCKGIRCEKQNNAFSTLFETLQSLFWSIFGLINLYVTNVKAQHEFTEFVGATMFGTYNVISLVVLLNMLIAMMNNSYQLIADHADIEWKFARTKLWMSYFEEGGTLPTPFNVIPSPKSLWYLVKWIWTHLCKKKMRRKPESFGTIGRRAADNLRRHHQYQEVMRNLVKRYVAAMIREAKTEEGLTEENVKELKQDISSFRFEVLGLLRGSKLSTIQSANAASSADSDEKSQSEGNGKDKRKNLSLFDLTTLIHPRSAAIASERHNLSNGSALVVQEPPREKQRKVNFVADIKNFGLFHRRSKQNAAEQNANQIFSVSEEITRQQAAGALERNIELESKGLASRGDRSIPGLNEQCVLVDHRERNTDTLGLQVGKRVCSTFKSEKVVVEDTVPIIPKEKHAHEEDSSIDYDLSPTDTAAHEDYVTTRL

[2] = tested on: Vero; assay: cells; format: functional, cell-based, Chlorocebus sabaeus
[3] = tested on: Vero; assay: cells; format: functional, Chlorocebus sabaeus
[4] = target: T2, Ubiquitin-conjugating enzyme E2 N (Homo sapiens, UniProt P61088); format: functional;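 also: Dose-response confirmation in a TR-FRET assay detecting UBC13-driven polyubiquitin chain formation, inhibition measured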
T2 sequence (P61088 whole entry): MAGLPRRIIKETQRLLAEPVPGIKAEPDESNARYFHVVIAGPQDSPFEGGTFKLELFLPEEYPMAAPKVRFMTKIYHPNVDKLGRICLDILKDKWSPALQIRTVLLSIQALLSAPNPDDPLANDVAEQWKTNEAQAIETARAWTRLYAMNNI

[5] = target: Voltage-dependent T-type calcium channel subunit alpha-1H (Homo sapiens, UniProt O95180); format: functional;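 also: channel activity triggered by adding a high calcium stimulation buffer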
[6] = inhibitors of firefly luciferase expression or activity, dose response, H4 neuroglioma cells, luminescence (AID 1990); format: functional, cell-based
[7] = Luminescence Cell-Based Dose Response HTS to Identify Inhibitors of 5'UTR Stem-Loop Driven Prion Protein mRNA Translation in H4 Neuroglioblastoma Cells. [Related pubchem assays: 1827 (Project Summary), 1813 (Primary HTS)]; format: functional
[8] = inhibitors of SNCA 5'UTR-driven reporter translation, confirmation, H4 neuroglioma cells, luminescence (AID 1988); format: functional, cell-based
[9] = tested on: INS1; assay: beta cell apoptosis inhibitors, cytokine rescue, dose response, luminescence, retest (AID 449756); format: functional, cell-based; conditions: Rattus norvegicus;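 also: cell death triggered by IL-1 beta plus TNF-alpha plus IFN-gamma mixture; protective hits raise ATP signal compared with cytokine alone wells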
[10] = target: T3, Protein skinhead-1 (Caenorhabditis elegans, UniProt P34707); format: functional
T3 sequence (P34707 whole entry): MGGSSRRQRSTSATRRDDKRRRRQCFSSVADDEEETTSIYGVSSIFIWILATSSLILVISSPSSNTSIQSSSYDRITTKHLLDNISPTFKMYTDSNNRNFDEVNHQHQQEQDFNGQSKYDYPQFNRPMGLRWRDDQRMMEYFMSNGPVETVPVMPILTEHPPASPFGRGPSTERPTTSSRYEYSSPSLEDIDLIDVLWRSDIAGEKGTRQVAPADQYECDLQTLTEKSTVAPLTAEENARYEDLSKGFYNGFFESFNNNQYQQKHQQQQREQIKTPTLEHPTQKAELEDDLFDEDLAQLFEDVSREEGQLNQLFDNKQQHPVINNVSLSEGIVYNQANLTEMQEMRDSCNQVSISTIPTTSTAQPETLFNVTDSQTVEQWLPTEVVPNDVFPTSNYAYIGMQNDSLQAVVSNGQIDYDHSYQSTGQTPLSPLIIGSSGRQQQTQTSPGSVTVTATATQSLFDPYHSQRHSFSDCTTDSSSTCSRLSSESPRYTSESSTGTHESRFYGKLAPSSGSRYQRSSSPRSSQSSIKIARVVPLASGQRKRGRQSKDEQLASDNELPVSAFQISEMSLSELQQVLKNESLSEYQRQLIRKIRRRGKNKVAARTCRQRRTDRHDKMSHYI

[11] = target: Large T antigen (Simian virus 40, UniProt P03070); format: functional, Betapolyomavirus macacae;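 also: Confirmatory-stage PubChem screen for compounds that inhibit SV40 T antigen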
[12] = target: T4, Heat shock factor protein 1 (Mus musculus, UniProt P38532); assay: HSF1 potentiators in luciferase reporter cells, confirmation, cell-based, NIH3T3, luminescence, dose retest (AID 435004); format: functional;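 also: stress induced by proteasome inhibitor MG132 added 30 min after compound; luciferase reporter driven by HSF1 response element in NIH3T3 cells; actives raise luminescence as potentiators of the MG132 stress response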
T4 sequence (P38532 whole entry): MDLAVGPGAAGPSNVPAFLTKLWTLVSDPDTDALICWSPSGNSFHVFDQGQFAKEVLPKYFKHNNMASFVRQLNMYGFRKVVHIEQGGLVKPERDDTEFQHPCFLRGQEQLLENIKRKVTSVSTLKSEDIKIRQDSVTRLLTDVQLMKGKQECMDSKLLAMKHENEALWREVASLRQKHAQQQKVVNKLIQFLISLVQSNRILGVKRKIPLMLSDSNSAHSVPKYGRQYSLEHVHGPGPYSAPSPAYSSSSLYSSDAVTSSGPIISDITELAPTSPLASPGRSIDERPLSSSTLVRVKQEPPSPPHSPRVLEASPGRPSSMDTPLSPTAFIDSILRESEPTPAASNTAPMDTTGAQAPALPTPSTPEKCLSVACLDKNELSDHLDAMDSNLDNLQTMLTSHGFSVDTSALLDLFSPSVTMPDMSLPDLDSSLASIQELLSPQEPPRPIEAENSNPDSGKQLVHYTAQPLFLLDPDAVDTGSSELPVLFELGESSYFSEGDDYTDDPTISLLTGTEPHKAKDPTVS

[13] = THP-1 cell cytotoxicity, dose response, cytotoxicity control for non-replicating M. tuberculosis project (AID 489025); format: functional
[14] = cells; format: functional
[15] = Luminescence Cell-Based Dose Confirmation HTS to Identify Activators of 5'UTR Stem-Loop Driven Alpha-Synuclein mRNA Translation in H4 Neuroglioblastoma Cells. [Related pubchem assays: 1829 (Project Summary), 1814 (Primary HTS)]; format: functional
[16] = Luminescence Cell-Based Dose Response HTS to Identify Activators of Luciferase Translation or Activity in H4 […] Cells. [Related pubchem assays: 1829 (Project Summary), 1814 (Primary HTS)]; format: functional
[17] = tested on: H4; assay: Luminescence Cell-Based Dose Response HTS to Identify Activators of 5'UTR Stem-Loop Driven Prion Protein mRNA Translation in H4 Neuroglioblastoma Cells. [Related pubchem assays: 1829 (Project Summary), 1814 (Primary HTS)]; format: functional; conditions: Homo sapiens
[18] = tested on: Streptococcus sp. 'group A'; assay: growth inhibition of control SK(-) GAS strain, dose response, counter-screen for streptokinase expression inhibitor project, luminescence, kanamycin, BacTiterGlo, confirmation (AID 1900); format: functional, organism-based
[19] = cells; format: functional, cell-based
[20] = target: T5, Streptokinase A (Streptococcus pyogenes serotype M1, UniProt P10520); assay: S. pyogenes streptokinase expression inhibitors, potency, dose response, plasminogen activation absorbance, OD405 (AID 1914); format: functional, Streptococcus pyogenes M1 GAS;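 also: secreted streptokinase activity via plasminogen activation per viability signal from cell pellet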
T5 sequence (P10520 whole entry): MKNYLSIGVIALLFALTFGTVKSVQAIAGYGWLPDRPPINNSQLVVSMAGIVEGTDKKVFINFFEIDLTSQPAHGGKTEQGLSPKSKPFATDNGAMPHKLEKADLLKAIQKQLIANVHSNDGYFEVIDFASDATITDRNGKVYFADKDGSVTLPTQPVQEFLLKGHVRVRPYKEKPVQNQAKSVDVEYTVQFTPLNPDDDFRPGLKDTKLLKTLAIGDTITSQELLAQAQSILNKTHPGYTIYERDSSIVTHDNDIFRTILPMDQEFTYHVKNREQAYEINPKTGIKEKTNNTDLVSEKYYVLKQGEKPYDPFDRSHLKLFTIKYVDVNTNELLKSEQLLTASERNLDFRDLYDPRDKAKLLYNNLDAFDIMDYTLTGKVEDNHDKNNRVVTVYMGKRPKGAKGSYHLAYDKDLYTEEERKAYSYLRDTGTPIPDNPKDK

[21] = cells; format: functional, cell-based; remark: listed apart in the source
[22] = tested on: Streptococcus; assay: Group A Streptococcus viability loss, dose response, counter-screen for streptokinase expression inhibitor project, luminescence, BacTiterGlo (AID 1915); format: functional, organism-based;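 also: potency for reduction of bacterial viability or growth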

Voltage-dependent T-type calcium channel subunit alpha-1H, sequence (O95180 whole entry): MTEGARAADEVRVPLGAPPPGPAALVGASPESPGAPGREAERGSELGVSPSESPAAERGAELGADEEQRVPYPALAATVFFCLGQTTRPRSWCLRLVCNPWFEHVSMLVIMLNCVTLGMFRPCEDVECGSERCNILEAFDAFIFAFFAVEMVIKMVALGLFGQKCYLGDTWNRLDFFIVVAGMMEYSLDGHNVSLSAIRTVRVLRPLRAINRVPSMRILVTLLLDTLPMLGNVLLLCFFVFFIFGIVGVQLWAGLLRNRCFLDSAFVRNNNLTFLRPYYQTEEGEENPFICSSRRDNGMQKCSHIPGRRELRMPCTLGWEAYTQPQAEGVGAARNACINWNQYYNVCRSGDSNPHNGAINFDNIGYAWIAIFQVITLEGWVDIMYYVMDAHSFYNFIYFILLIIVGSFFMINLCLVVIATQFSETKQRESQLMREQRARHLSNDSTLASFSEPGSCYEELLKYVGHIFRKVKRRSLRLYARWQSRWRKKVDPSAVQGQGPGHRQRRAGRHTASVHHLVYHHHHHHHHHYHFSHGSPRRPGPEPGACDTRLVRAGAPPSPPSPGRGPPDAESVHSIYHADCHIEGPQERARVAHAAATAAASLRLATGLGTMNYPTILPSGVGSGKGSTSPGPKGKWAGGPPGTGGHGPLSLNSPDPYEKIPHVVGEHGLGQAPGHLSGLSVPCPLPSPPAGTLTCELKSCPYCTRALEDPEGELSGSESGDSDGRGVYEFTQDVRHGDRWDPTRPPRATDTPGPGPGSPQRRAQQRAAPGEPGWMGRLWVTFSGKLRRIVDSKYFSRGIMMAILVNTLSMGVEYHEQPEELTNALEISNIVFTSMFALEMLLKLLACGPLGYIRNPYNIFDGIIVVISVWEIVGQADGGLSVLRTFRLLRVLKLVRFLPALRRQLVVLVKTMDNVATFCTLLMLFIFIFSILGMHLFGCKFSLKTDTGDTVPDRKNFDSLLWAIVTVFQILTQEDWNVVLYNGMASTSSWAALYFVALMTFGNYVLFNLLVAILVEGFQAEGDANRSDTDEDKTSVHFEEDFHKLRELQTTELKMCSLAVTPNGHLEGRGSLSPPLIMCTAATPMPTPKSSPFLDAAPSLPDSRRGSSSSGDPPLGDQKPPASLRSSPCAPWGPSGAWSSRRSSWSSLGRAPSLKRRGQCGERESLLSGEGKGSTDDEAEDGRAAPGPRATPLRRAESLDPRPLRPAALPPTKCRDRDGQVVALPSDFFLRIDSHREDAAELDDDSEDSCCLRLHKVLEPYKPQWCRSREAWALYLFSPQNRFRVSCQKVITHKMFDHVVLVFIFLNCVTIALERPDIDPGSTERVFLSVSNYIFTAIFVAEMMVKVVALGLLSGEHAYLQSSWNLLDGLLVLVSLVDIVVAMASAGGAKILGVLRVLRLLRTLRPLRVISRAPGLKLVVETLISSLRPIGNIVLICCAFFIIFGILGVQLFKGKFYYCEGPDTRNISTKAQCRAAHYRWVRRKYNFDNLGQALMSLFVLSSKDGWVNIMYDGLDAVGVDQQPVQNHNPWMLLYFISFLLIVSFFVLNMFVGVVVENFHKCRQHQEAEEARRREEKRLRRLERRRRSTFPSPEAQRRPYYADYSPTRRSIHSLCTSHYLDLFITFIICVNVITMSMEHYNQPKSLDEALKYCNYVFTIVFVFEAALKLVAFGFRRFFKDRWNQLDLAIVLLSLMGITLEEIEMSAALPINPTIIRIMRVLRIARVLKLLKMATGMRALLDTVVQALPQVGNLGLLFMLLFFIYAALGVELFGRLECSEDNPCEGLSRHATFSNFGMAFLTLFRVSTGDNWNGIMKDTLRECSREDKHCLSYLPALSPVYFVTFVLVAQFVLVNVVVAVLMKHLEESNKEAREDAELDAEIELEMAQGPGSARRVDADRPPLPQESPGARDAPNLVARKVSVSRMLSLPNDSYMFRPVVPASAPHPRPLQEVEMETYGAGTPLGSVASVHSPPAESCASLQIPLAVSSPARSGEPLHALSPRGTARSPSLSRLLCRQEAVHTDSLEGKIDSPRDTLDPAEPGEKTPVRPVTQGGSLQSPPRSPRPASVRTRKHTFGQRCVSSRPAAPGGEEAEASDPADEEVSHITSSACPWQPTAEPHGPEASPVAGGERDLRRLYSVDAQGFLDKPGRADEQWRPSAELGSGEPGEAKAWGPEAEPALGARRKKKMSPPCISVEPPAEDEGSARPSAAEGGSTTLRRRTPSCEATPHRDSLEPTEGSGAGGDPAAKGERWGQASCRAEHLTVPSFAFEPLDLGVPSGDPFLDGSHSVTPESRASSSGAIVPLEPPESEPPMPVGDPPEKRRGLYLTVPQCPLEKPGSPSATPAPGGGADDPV
Large T antigen, sequence (P03070 whole entry): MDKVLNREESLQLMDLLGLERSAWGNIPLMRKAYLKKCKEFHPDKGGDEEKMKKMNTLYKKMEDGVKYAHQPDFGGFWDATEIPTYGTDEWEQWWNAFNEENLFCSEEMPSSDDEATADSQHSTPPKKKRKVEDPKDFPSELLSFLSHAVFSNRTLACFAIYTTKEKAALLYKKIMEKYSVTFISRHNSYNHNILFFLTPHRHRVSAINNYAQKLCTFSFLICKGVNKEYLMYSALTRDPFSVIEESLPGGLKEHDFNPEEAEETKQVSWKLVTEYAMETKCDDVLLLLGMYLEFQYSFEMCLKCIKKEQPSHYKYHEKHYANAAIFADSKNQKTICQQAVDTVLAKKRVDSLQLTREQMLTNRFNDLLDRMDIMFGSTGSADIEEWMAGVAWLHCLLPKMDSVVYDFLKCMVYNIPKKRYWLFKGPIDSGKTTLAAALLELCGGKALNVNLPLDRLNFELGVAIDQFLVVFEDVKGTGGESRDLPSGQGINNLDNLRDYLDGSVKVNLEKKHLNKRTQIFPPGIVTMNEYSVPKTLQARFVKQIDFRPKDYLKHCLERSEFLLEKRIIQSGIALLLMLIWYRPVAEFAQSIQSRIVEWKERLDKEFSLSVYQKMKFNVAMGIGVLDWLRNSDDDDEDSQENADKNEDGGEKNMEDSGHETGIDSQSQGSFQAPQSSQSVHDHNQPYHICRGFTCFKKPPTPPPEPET

For COc1ccc(Br)cc1CN1CCN(C(=O)Cc2ccccc2)CC1, the EC50 [1] was 6.68 µM (active).
In the case of Cc1ccc(O)c(C(=O)CC(=O)c2cccc(F)c2)c1, the IC50 ([2]; Chlorocebus sabaeus, Vero) is reported as 21.1 µM (active) and the CC50 ([3]; Chlorocebus sabaeus, Vero) is reported as > 25 µM (active).
With C[C@]12CCCC[C@@H]1CC[C@@H]1[C@@H]2CC[C@@]2(C)[C@H]1CC[C@@]2(O)CNCCO the IC50 [4] was > 20 µM (inactive), the IC50 ([2]; Chlorocebus sabaeus, Vero) was > 12.5 µM (active) and the IC50 ([2]; vero) was 9.19 µM (active). The CC50 [3] was 19.4 µM (active) and the CC50 ([3]; Chlorocebus sabaeus, Vero) was 18.4 µM (active).
In the case of N#C/C(=C\c1cn(CCOc2ccccc2)c2ccccc12)C(=O)NCC1CCCO1 (stereo not drawn), the EC50 [5] is reported as 5.31 µM (active).
In the case of O=C(CSc1nc2ccccc2n1-c1ccccc1)Nc1ncc(Cl)cc1Cl, the IC50 ([2]; Chlorocebus sabaeus, Vero) is reported as 4.63 µM (active) and the CC50 ([3]; Chlorocebus sabaeus, Vero) is reported as 22.1 µM (active).
With COC(=O)c1c(NC(=O)c2ccc(OC(C)C)cc2)sc2c1CC(C)(C)NC2(C)C the EC50 [6] was 8.35 µM (active), the EC50 [7] was 8.41 µM (active) and the EC50 [8] was 8.31 µM (active). The IC50 [4] was > 20 µM (inactive), the IC50 ([2]; Chlorocebus sabaeus, Vero) was 23.3 µM (active) and the CC50 ([3]; Chlorocebus sabaeus, Vero) was > 25 µM (active).
With COc1cccc(N2CCN(CC(=O)Nc3nnc(-c4ccccc4)s3)CC2)c1 the EC50 [5] was 6.4 µM (active).
With CCCCCc1cc(=O)oc2c(C(CCN(CC)CC)c3ccc(OC)cc3)c(OC)cc(OC)c12 (stereo not drawn) the IC50 [4] was > 20 µM (inactive) and the AC50 [9] was 10.8 µM (active).
For CC(C(=O)N1c2ccccc2Sc2ccccc21)n1nnc(-c2cccs2)n1 (stereo not drawn), the EC50 [5] was 6.38 µM (active).
For Cc1cc(C)n(Cc2ccc(C(=O)NCc3ccco3)o2)n1, the IC50 [10] was > 100 µM (inactive).
In the case of Clc1cccc(OCc2nc(-c3ccncc3)no2)c1, the IC50 [10] is reported as 26.6 µM (active).
With CCC(=O)Nc1ccc(S(=O)(=O)N2CCc3ccccc3C2)cc1 the EC50 [5] was 7.83 µM (active).
With CCOC(=O)Cc1cc(=O)n(-c2nc3ccccc3s2)[nH]1 the IC50 [11] was > 100 µM (active).
For Cc1ccccc1CSCCNC(=O)CN(c1ccc2c(c1)OCO2)S(C)(=O)=O, the EC50 [5] was 5 µM (active).
With c1ccc(Cn2nnnc2C(c2cccs2)N2CCc3ccccc3C2)cc1 (stereo not drawn) the EC50 [5] was 0.844 µM (active) and the EC50 [12] was > 260 µM (inactive).
For N#Cc1ccsc1NC(=O)C1CCN(C(=O)c2ccc(Cl)cc2)CC1, the IC50 [4] was > 20 µM (inactive).
In the case of COc1cccc(C(c2sc3ncnn3c2O)N2CC(C)OC(C)C2)c1 (stereo not drawn), the IC50 [10] is reported as > 100 µM (inactive).
In the case of Cc1cc(NC(=O)CSc2nc3ccccc3c(=O)n2Cc2ccc(F)cc2)no1, the IC50 [10] is reported as 82.4 µM (inactive).
In the case of COc1cccc(NC(=O)CSc2nc3ccccc3c(=O)n2CCCC(=O)NCCCN2CCOCC2)c1, the IC50 [4] is reported as > 20 µM (inactive).
With COc1cc(/C=N/N(C)C)cc(Br)c1O the IC50 [11] was 5.17 µM (active).
For CCCCN1CCC(O)(c2ccccc2)C(C(=O)c2ccccc2)C1 (stereo not drawn), the CC50 [13] was > 40 µM (active) and the IC50 [14] was 29.6 µM (active).
With CCCc1ccc(OCc2ccc(C(=O)N/N=C/c3cccnc3)o2)cc1 the CC50 [13] was > 40 µM (active) and the IC50 [14] was 47.6 µM (active).
For Cc1ccc(C)c(N2CCN(C(=O)CC3Sc4ccccc4NC3=O)CC2)c1 (stereo not drawn), the EC50 [5] was 3.76 µM (active).
In the case of CNCCNC[C@H](Cc1cccc2ccccc12)NCCc1ccccc1, the IC50 ([2]; Chlorocebus sabaeus, Vero) is reported as 20.4 µM (active).
For C=CCNc1nnc(Sc2ncccc2[N+](=O)[O-])s1, the EC50 [15] was > 120 µM (not active), the EC50 [16] was 10.3 µM (inconclusive) and the EC50 [17] was 17.8 µM (active). For the same compound, the CC50 [13] was 33.4 µM (active) and the IC50 [14] was 3.81 µM (active).
With COc1ccc(Cn2nnnc2C(c2cc3cc(C)ccc3nc2O)N2CCN(C)CC2)cc1 (stereo not drawn) the EC50 [1] was 1.88 µM (active).
With N=c1c2c(n(Cc3ccccc3)c3c1CCC3)CCC2 the EC50 [1] was 3.35 µM (active).
For CCOC(=O)C1(CCOc2ccccc2)CCN(Cc2cccs2)CC1, the EC50 [1] was 4.22 µM (active).
For CC(=O)c1cccc(NS(=O)(=O)c2ccc3c(c2)oc(=O)n3C)c1, the IC50 [10] was > 100 µM (inactive).
With Cc1nc2ccccc2c(=O)n1/N=C/c1ccc2ccccc2c1O the EC50 [18] was 44.6 µM (active), the EC50 [19] was > 350 µM (not active) and the EC50 [20] was > 150 µM (not active). For the same compound, the EC50 [21] was > 350 µM (not active) and the EC50 [22] was > 150 µM (not active).
